Several values for one entry are separate records, joined by “and”; a condition that tells them apart may be missing. Identical values can stand only once.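 Dose response: 5 concentrations. Exposure: 48 h. Format: 96-well plates. Endpoint: linear interpolation; highest concentration if not reached. GI50 is the concentration that inhibits growth by half. The concentration for full growth arrest is given as TGI.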
System: MDA-MB-468 breast
Test: NCI anticancer screen, dose series, 48 h

| Structure (SMILES) | GI50 | TGI |
| --- | --- | --- |
| CN1CCN(Cc2ccc(NC(=O)c3cncc(C#Cc4cnc5ccc(NCCO)nn45)c3)cc2C(F)(F)F)CC1 | 227 nM | 1020 nM |
| COc1ccc(Cn2cc3c(c2)-c2oncc2CC3)cc1 | 3200 nM | > 100000 nM |
| C/C=C1\NC(=O)[C@H]2CSSCCC=C[C@H](CC(=O)N[C@H](C(C)C)C(=O)N2)OC(=O)[C@H](C(C)C)NC1=O | < 10 nM | < 12.2 nM |
| Cc1nc2sccn2c1-c1csc(Nc2cccc(Cl)c2C)n1 | 1050 nM | 11000 nM |
| CCn1c(-c2nonc2N)nc2c(C#CC(C)(C)O)nc(OCCNC)cc21 | 3320 nM | 10400 nM |
| COc1ccc2cc(-c3c(-c4ccncc4)nc(-c4ccc(S(C)(=O)=O)cc4C)n3C)ccc2c1 | 3020 nM | 14500 nM |
| COc1ccc(-c2ccc(-c3ccc(C(=N)N)cn3)o2)cc1 | 2040 nM | 5690 nM |
| COc1cc2c(=O)n(CCN)c3c4cc5c(cc4ccc3c2cc1OC)OCO5 | 219 nM | 881 nM |
| COc1ccc2[nH]c(O)c(C(=Nc3ccc(N(C)C(=O)CN4CCN(C)CC4)cc3)c3ccccc3)c2c1 | 2600 nM | 6130 nM |
| COc1cc(-c2n/c(=C\c3c(O)[nH]c4ccc(Cl)cc34)cc3c2=Nc2ccccc2-3)ccc1F | 1810 nM | 3810 nM |
| COc1ccc(N2C(=O)[C@H]3CC(C)c4c([nH]c5ccccc45)[C@H]3C2=O)cc1 (some centres undefined) | 3630 nM | 54100 nM |
| Cc1ccc(-c2csc(NC(=O)CN3CCN(c4cc5c(cc4F)c(=O)c(C(=O)O)cn5C4CC4)CC3)n2)cc1 | 697 nM | 6530 nM |
| COC(=O)C1CCc2sc3ncnc(Nc4cn[nH]c4C(=O)Nc4ccc(CN5CCN(C)CC5)cc4)c3c21 (centres undefined) | 1420 nM | > 100000 nM |
| CN1C(=O)N(C)C2C1NN=c1s/c(=C\c3ccc(F)cc3)c(=O)n12 (centres undefined) | 366 nM | 4070 nM |
| C=CC(=O)Nc1cc2c(Nc3ccc(F)c(Cl)c3)ncnc2cc1OCCCN1CCOCC1 | < 10 nM and 2.38 nM | 194 nM and 101 nM |
| O=C(O)c1ccc2c(c1)CCCC(c1ccc(Cl)cc1Cl)=C2c1ccc(O[C@H]2CCN(CCCF)C2)cc1 | 12000 nM | 26900 nM |
| Cc1sc2nc3c4ccccc4c(NCCCN(C)C)nn3c(=O)c2c1C | 1270 nM | 2800 nM |
| COc1cc(/C=C2\C(=O)Nc3ccc(N(C)C)cc32)cc(OC)c1OC | 3250 nM | 27200 nM |
| CCOc1cc(/C=N\Nc2nnc(C)n2N)c(C)cc1N(CCCl)CCCl | 321 nM | 2230 nM |

| Structure (SMILES) | GI50 | TGI |
| --- | --- | --- |
| Cc1c(C(=O)NCCN2CCOCC2)cn2ncnc(Oc3ccc(NC(=O)Nc4ccc(Cl)c(C(F)(F)F)c4)cc3)c12 | 1520 nM | 3450 nM |
| Fc1cc2[nH]ncc2c2c3c(c(-c4cn[nH]c4C(F)(F)F)nc12)C1CCC3C1 (centres undefined) | 1100 nM | 3980 nM |
| CC1(C)CC[C@]23CC[C@]4(C)[C@H](CC[C@@H]5[C@@]6(C)CC[C@H](N)C(C)(C)[C@@H]6CC[C@]54C)[C@H]2[C@H]1OC3 | 1700 nM | 3250 nM |
| C=C1C(=O)O[C@H]2[C@H]1CC/C(COC(=O)c1cc3cc(Cl)ccc3[nH]1)=C\CC[C@@]1(C)O[C@@H]21 | 1890 nM | 4070 nM |
| CC[PH+](CC)CC.O=COC1OC([S-])C(OC=O)C(OC=O)C1OC=O.[Au+] (centres undefined) | 659 nM | 2310 nM |
| Cc1cc2c(cc1C)N(C(=O)CCl)CCN2C(=O)CCl | 199 nM | 457 nM |
| CCCCCCCCCCCCCCCCCC1=NCCN1C(=O)OCCO | 1680 nM | 3210 nM |
| CCOc1cccc(/C=N/NC(=O)C(=O)Nc2cccc(C(F)(F)F)c2)c1O | 2050 nM | 15800 nM |
| CNCCn1c(=O)c2cc(OC)c(OC)cc2c2ccc3cc4c(cc3c21)OCO4 | 74.3 nM | 244 nM |
| Cn1c2c(c3ccc(Cl)c(Cl)c31)C(C#N)C1(CCNCC1)NC2=O (centres undefined) | 1630 nM | 4290 nM |
| CCn1c2ccc(O)cc2c2c(C)c3c[n+](C)ccc3c(C)c21 | 284 nM | 2600 nM |
| COc1ccc(C2=NN(C=O)C(c3cccc(Nc4ccnc5cc(Cl)ccc45)c3)C2)cc1 (centres undefined) | 417 nM | 3480 nM |
| CCCOc1ccc2nc(NC(=O)OC)[nH]c2c1 | 274 nM | > 100000 nM |
| NC(=O)c1cc2c3ccccc3ccn2c1-c1ccccc1 | 273 nM | 15200 nM |
| COc1cc(C(=O)Nc2cc3c(cc2Oc2cc(C)cc(C)c2)C(=O)N(C)[C@@H](CC(=O)N(C)O)C(=O)N3)c(Br)c(OC)c1OC | < 3.33 nM | < 3.33 nM |
| COc1ccccc1/C=C/C(=O)c1ccccc1 | 7230 nM | 28000 nM |
| COc1cc2ncnc(Nc3ccc(F)c(Cl)c3)c2cc1NC(=O)/C=C/CN1CCCCC1 | < 10 nM | 5.38 nM |
| Cc1cc(Cl)ccc1Nc1nc(C(F)(F)F)ccc1C(=O)N/N=C/c1ccc([N+](=O)[O-])cc1 | 1160 nM | 5160 nM |

From PubChem BioAssay (NCI)
